Reference: US7595401B2, “Therapeutic compounds and their use in cancer” (Myriad Pharmaceuticals, Inc., priority 2006, dated 2009)

System: purified human Hsp90
Experiment: Binding Assay: fluorescence polarization with BODIPY-labeled geldanamycin
Conditions: 5 μM compound, BODIPY-GM 10 nM, Hsp90 30 nM
Method in brief: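 Compounds in 2% DMSO final compete with 10 nM BODIPY-GM for 30 nM purified human Hsp90, incubated overnight at room temperature in pH 7.3 HEPES buffer containing Na2MoO4 and DTT. Polarization (mP, ex/em 485/530) normalized to DMSO gives percent inhibition; autofluorescence-confounded data excluded.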

% Inhibition at 5 μM Compound Concentration [%] | Structure (SMILES)
15 | COc1ccc(OC)c(Sc2nc3c(N)ncnc3n2CC(c2ccc(Cl)cc2)C(C)C)c1 (stereo not drawn) [Example 119, 9-[2-(4-Chloro-phenyl)-3-methyl-butyl]-8-(2,5-dimethoxy-phenylsulfanyl)-9H-purine-6-ylamine]
78 | COc1ccc(OC)c(Sc2nc3c(N)ncnc3n2CCc2ccc(N)cc2)c1 [Example 216, 9-[2-(4-Amino-phenyl)-ethyl]-8-(2,5-dimethoxy-phenylsulfanyl)-9H-purin-6-ylamine]
0 | COc1ccc(OC)c(Sc2nc3c(N)ncn(Cc4ccc(F)cc4)c-3n2)c1 [Example 83, 8-(2,5-Dimethoxy-phenylsulfanyl)-3-(4-fluoro-benzyl)-3H-purin-6-ylamine]

More lines, now with the values behind:

Structure (SMILES) | % Inhibition at 5 μM Compound Concentration [%]
Nc1ncn(CCC2CCN(C=O)CC2)c2nc(Sc3cc(OCc4ccccc4)c(OCc4ccccc4)cc3Br)nc1-2 [Example 554, 4-[2-(6-Amino-8-{[4,5-bis (benzyloxy)-2-bromophenyl]thio}-3 H-purin-3-yl)ethyl]piperidine-1-carbaldehyde] | 0.00
CCCNC(=N)N1CCC(CCn2cnc(N)c3nc(Sc4cc5c(cc4Br)OCO5)nc2-3)CC1 [Example 619, 4-(2-{6-Amino-8-[(6-bromo-1,3-benzodioxol-5-yl)thio]-3 H-purin-3-yl}ethyl)-N-propylpiperidine-1-carboximidamide] | 76.00
COc1ccc(C2(Cn3cnc(N)c4nc(Sc5cc6c(cc5Br)OCO6)nc3-4)CC2)cc1 [Example 60, 8-(6-bromo-benzo[1,3]dioxol-5-ylsulfanyl)-3-[1-(4-methoxy-phenyl)-cyclopropylmethyl]-3H-purin-6-ylamine] | 30
CCn1nnnc1N1CCC(CCn2cnc(N)c3nc(Sc4cc5c(cc4Br)OCO5)nc2-3)CC1 [Example 611, 8-[(6-Bromo-1,3-benzodioxol-5-yl)thio]-3-{2-[1-(1-ethyl-1 H-tetrazol-5-yl)piperidin-4-yl]ethyl}-3 H-purin-6-amine] | 22.00
Nc1ncn(CC[C@H]2CCCN(C=O)C2)c2nc(Sc3cc4c(cc3Br)OCO4)nc1-2 [Example 603, (3R)-3-(2-{6-Amino-8-[(6-bromo-1,3-benzodioxol-5-yl)thio]-3 H-purin-3-yl}ethyl)piperidine-1-carbaldehyde] | 4.00
Nc1ncn(CCc2ccccc2)c2nc(Sc3ccc4c(c3)OC(F)(F)O4)nc1-2 [Example 293, 8-[(2,2-Difluoro-1,3-benzodioxol-5-yl)thio]-3-(2-phenylethyl)-3H-purin-6-amine] | 0.0

Same assay, conditions: BODIPY-GM 10 nM, Hsp90 30 nM

IC50 [nM] | Structure (SMILES)
> 25000 | COc1ccc(C#N)cc1Sc1nc2c(N)ncnc2n1CCc1ccccc1Cl [Example 306, 3-({6-Amino-9-[2-(2-chlorophenyl)ethyl]-9H-purin-8-yl}thio)-4-methoxybenzonitrile]
172 | Nc1ncnc2c1nc(Sc1cc3c(cc1Br)OCO3)n2CC[C@H]1CCCCN1 [Example 475, 8-[(6-Bromo-1,3-benzodioxol-5-yl)thio]-9-{2-[(2R)-piperidin-2-yl]ethyl}-9 H-purin-6-amine]
> 50000 | COc1ccc(OC)c(Sc2nc3c(N)ncn(CCc4ccc(F)cc4)c-3n2)c1 [Example 10, 8-(2,5-dimethoxy-phenylsulfanyl)-3-[2-(4-fluoro-phenyl)-ethyl]-3H-purin-6-ylamine]
> 8000 | COc1ccc(OC)c(Sc2nc3c(N)ncnc3n2CCc2ccc(N)cc2)c1 [Example 216, 9-[2-(4-Amino-phenyl)-ethyl]-8-(2,5-dimethoxy-phenylsulfanyl)-9H-purin-6-ylamine]
310 | Nc1ncnc2c1nc(Sc1cc3c(cc1Br)OCO3)n2CCC1CCN(Cc2ccc(F)cc2)CC1 [Example 579, 8-[(6-Bromo-1,3-benzodioxol-5-yl)thio]-9-{2-[1-(4-fluorobenzyl)piperidin-4-yl]ethyl}-9 H-purin-6-amine]
130 | Nc1ncnc2c1nc(Sc1cc3c(cc1Br)OCO3)n2CCC1CCN(C(=O)OCc2ccccc2)CC1 [Example 409, Benzyl 4-(2-{6-amino-8-[(6-bromo-1,3-benzodioxol-5-yl)thio]-9H-purin-9-yl}ethyl)piperidine-1-carboxylate]
> 25000 | COc1cc(Sc2nc3c(N)ncnc3n2CCc2ccccc2)c(OC)cc1Cl [Example 257, 8-[(4-Chloro-2,5-dimethoxyphenyl)thio]-9-(2-phenylethyl)-9H-purin-6-amine]
470 | COc1cc(Sc2nc3c(N)ncnc3n2CCc2c(F)cccc2Cl)c(OC)cc1Cl [Example 256, 8-[(4-Chloro-2,5-dimethoxyphenyl)thio]-9-[2-(2-chloro-6-fluorophenyl)ethyl]-9H-purin-6-amine]
800 | COc1ccc(OC)c(Sc2nc3c(N)ncnc3n2CCC2CCOCC2)c1 [Example 348, 8-[(2,5-Dimethoxyphenyl)thio]-9-[2-(tetrahydro-2H-pyran-4-yl)ethyl]-9H-purin-6-amine]
> 8000 | CC1(C)COC(CCn2c(Sc3cc4c(cc3Br)OCO4)nc3c(N)ncnc32)CN1 (stereo not drawn) [Example 601, 8-[(6-Bromo-1,3-benzodioxol-5-yl)thio]-9-[2-(5,5-dimethylmorpholin-2-yl)ethyl]-9 H-purin-6-amine]

The next lines start with the molecule.

Structure (SMILES) | IC50 [nM]
Nc1ncn(CCc2c(F)c(F)c(F)c(F)c2F)c2nc(Sc3cc4c(cc3Br)OCO4)nc1-2 [Example 42, 8-(6-bromo-benzo[1,3]dioxol-5-ylsulfanyl)-3-(2-pentafluorophenyl-ethyl)-3H-purin-6-ylamine] | > 5000
CC(C)N1CCN(CCn2c(Sc3cc4c(cc3Br)OCO4)nc3c(N)ncnc32)CC1 [Example 487, 8-[(6-Bromo-1,3-benzodioxol-5-yl)thio]-9-[2-(4-isopropylpiperazin-1-yl)ethyl]-9H-purin-6-amine] | 900
CC(C)(C)C(=O)N1CCCC(CCn2c(Sc3cc4c(cc3Br)OCO4)nc3c(N)ncnc32)C1 (stereo not drawn) [Example 449, 8-[(6-Bromo-1,3-benzodioxol-5-yl)thio]-9-{2-[1-(2,2-dimethylpropanoyl)piperidin-3-yl]ethyl}-9H-purin-6-amine] | 200
Nc1ncnc2c1nc(Sc1cc3c(cc1Br)OCO3)n2CCC1CCN(C(=O)C2CC2)CC1 [Example 514, 8-[(6-Bromo-1,3-benzodioxol-5-yl)thio]-9-{2-[1-(cyclopropylcarbonyl)piperidin-4-yl]ethyl}-9 H-purin-6-amine] | 110
Nc1ncnc2c1nc(Sc1cc3c(cc1Br)OCO3)n2CCC1CCN(C(=O)CO)CC1 [Example 760, 2-[4-(2-{6-Amino-8-[(6-bromo-1,3-benzodioxol-5-yl)thio]-9H-purin-9-yl}ethyl)piperidin-1-yl]-2-oxoethanol] | 325
COC(=O)[C@H](CCSC)NC(=O)N1CCC(CCn2c(Sc3cc4c(cc3Br)OCO4)nc3c(N)ncnc32)CC1 [Example 505, Methyl N-{[4-(2-{6-amino-8-[(6-bromo-1,3-benzodioxol-5-yl)thio]-9 H-purin-9-yl}ethyl)piperidin-1-yl]carbonyl}-L-methioninate] | 85
Nc1ncnc2c1nc(Sc1cc3c(cc1Br)OCO3)n2CC[C@H]1CCCN(C=O)C1 [Example 604, (3R)-3-(2-{6-Amino-8-[(6-bromo-1,3-benzodioxol-5-yl)thio]-9 H-purin-9-yl}ethyl)piperidine-1-carbaldehyde] | 190
CCCNC(=N)N1CCC(CCn2c(Sc3cc4c(cc3Br)OCO4)nc3c(N)ncnc32)CC1 [Example 618, 4-(2-{6-Amino-8-[(6-bromo-1,3-benzodioxol-5-yl)thio]-9 H-purin-9-yl}ethyl)-N-propylpiperidine-1-carboximidamide] | 41
